Results from paper PMC9469500, “Targeting an Initiator Allergen Provides Durable and Expansive Protection against House Dust Mite Allergy” (ACS Pharmacology & Translational Science, 2022).
Where a name gives a salt, the structure may show the parent alone.

Experiments:
rat hepatocytes = test: hepatocyte stability (rat); assay type: in vitro ADME
plasma stability (rat) = assay type: in vitro ADME
thermodynamic solubility = assay type: physicochemical; details: thermodynamic from solid
unsensitized BN rats = test: HDM extract challenge in unsensitized (naive) BN rats, duration of protection; assay type: in vivo; details: for performance in vivo (maximum inhibition of the eosinophil response, Figure 5A): focused library, durability of inhibition studies; for BAL neutrophil response: significance of effect (P<0.05): single i.t. aerosol dose 50:1 molar equivalents
plasma stability (human) = assay type: in vitro ADME
Pharmacokinetics in rats = details: rat p.o.
Method: Soluble formulations were developed and verified by high performance liquid chromatography (HPLC)
1 mL/kg) and p.o. (5 mg/kg, 5 mL/kg) in non-fasted Sprague-Dawley rats (male, 200-300 g, 10-16 weeks
of age, groups of three animals per route per compound). Timed blood samples were taken after dosing
and plasma prepared for LC-MS-MS quantification of the test substance after inclusion of an internal
standard. A non -compartmental model in WinNonlin software was used to calculate pharmacokinetic

[1] = tested on: rats sensitized to the HDM allergen extract; test: HDM extract challenge in rats sensitized to the HDM allergen extract (BAL cells and mediators); assay type: in vivo, BN rats; details: single i.t. aerosol dose 2 h before (15 μg/kg compound 1, 46 μg/kg compound 2), BAL 48 h
Description: Control animals received saline vehicle treatment.

[2] = Plasma protein binding (human); assay type: in vitro ADME
Method: Plasma Protein Binding Assay
Plasma protein binding (PPB) was determined using Rapid Equilibrium Dialysis chambers with 8 kDa cut-off inserts (Fisher Scientific UK Ltd, Leicestershire, UK). Rat (Sprague Dawley strain) plasma EDTA K2 (pooled, mixed sex, SeraLab, West Sussex, UK) was centrifuged (13,000 x g, 10 min) to remove precipitates before addition of compounds (initial concentration 5 µM). Concentrations were determined by liquid chromatography-tandem mass spectrometry (LC-MS-MS) (AB Sciex 3200 QTrap) after 4 h incubation at 37 °C with binding being calculated from the concentration of compound in each chamber. Assays were performed in replicate and the data expressed as mean ± s.e.
Cellular Stability of Compounds […]
Kaighn’s modification of Ham’s F12 medium (F12K). Cells were prepared for assay by washing 3 times with serum-free F12K. NR8383 Airway macrophages were grown in suspension culture in F12K, collected by centrifugation, washed in serum-free medium and aliquoted into test plates (1.4 x 10^6 cells/well). Both cell lines were treated with ADI compounds (100 nM) in serum -free F12K in a 5% CO 2 environment at 37 […]
n-Octanol (0.7 mL), pre -saturated with 10 mM PBS, pH7.4, was added to test compound (~1 mg) in a 2 mL HPLC vial followed by PBS (0. 7 mL), which had been pre -saturated with n -octanol. […]

[3] = Plasma protein binding (rat); assay type: in vitro ADME
Method: Plasma protein binding (PPB) was determined using Rapid Equilibrium Dialysis chambers with 8 kDa cut-off inserts (Fisher Scientific UK Ltd, Leicestershire, UK). Rat (Sprague Dawley strain) plasma EDTA K2 (pooled, mixed sex, SeraLab, West Sussex, UK) was centrifuged (13,000 x g, 10 min) to remove precipitates before addition of compounds (initial concentration 5 M). Concentrations were determined by liquid chromatography-tandem mass spectrometry (LC-MS-MS) (AB Sciex 3200 QTrap) after 4 h incubation at 37 °C with binding being calculated from the concentration of compound in each chamber. Assays were performed in replicate and the data expressed as mean ± s.e.

human hepatocytes = test: hepatocyte stability (human); assay type: in vitro ADME
[4] = tested on: rat alveolar macrophage line NR8383; test: Cellular stability in macrophages; assay type: in vitro ADME; details: 100 nM compound
Method: (§1) Cellular Stability of Compounds
(§2) The cellular stability of compounds in vitro was tested using rat airway epithelial cell line L2 and rat alveolar macrophage line NR8383 (ATCC©CRL-2192™). Assays were performed in replicate and the data expressed as mean ± s.e. mean. L2 cells were cultured to confluence in T25 flasks or 24 -well plates using Kaighn’s modification of Ham’s F12 medium (F12K). Cells were prepared for assay by washing 3 times with serum-free F12K. NR8383 Airway macrophages were grown in suspension culture in F12K, collected by centrifugation, washed in serum-free medium and aliquoted into test plates (1.4 x 10^6 cells/well). Both cell lines were treated with ADI compounds (100 nM) in serum -free F12K in a 5% CO 2 environment at 37 °C. Samples were removed for quantitative analysis by LC -MS-MS using appropriate multiple reaction monitoring transitions for each analyte. […]
(§3) n-Octanol (0.7 mL), pre -saturated with 10 mM PBS, pH7.4, was added to test compound (~1 mg) in a 2 mL HPLC vial followed by PBS (0. 7 mL), which had been pre -saturated with n -octanol. The mixture was shaken for 90 min before centrifugation for 10 min at 4,000 rpm. The upper organic layer (0.2 mL) and the aqueous layer (0.5 mL) were removed for analysis by LC-MS. Peak identity was confirmed by mass spectrometry and concentration assessed spectrophotometrically using a diode array detector. The log

[5] = tested on: rat airway epithelial cell line L2; test: Cellular stability in L2 cells; assay type: in vitro ADME; details: 100 nM compound
Method: as §1, §2, §3

Der p 1 = biological target: T1, Der p 1 (Dermatophagoides pteronyssinus, UniProt P08176); assay type: biochemical; details: Figure 5A, in words
T1 construct: from tissue; host or cells: spent culture medium of Dermatophagoides pteronyssinus (native HDM extract); ammonium sulfate precipitation, size exclusion, SBTI column, Resource Q
T1 sequence (P08176 99-320): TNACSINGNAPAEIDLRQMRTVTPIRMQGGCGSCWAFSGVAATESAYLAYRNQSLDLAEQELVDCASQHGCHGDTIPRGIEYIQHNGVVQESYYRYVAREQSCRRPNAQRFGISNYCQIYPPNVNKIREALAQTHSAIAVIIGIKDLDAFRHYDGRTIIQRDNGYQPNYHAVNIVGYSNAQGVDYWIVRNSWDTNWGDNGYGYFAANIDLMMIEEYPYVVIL
Method: Assays were assembled in 96-well plate format using a PerkinElmer Multiprobe II Plus HTS EX robot (PerkinElmer, UK). […] Reactions were initiated by the addition of 10 μL Der p 1 dissolved in the reaction buffer at 2.5 μg/mL and followed at 30 °C by measurement of fluorescence (excitation/emission 330/420 nm) using either a Fusion Alpha-FP or Envision plate reader fitted with a temperature-controlled carrier (PerkinElmer, UK).
Inhibitor kinetics were analyzed from progress curves. For reversible inhibitors, IC50 values were calculated conventionally.

[6] = single i.t. dose (15 μg/kg compound 1, 46 μg/kg compound 2), BAL 48 h
[7] = all time points, naive BN rats, HDM extract 10 µg Der p 1

In the case of `CC(C)[C@H](NC(=O)[C@H](C)NC(=O)[C@@H](NC(=O)C1CC[N+](C)(C)CC1)C(C)(C)C)C(=O)C(=O)NCc1ccccc1` [Compound 2, 4-{(S)-1-[(S)-1-((S)-1-benzylaminooxalyl-2-methyl-propylcarbamoyl)-ethylcarbamoyl]-2,2-dimethyl-propylcarbamoyl}-1,1-dimethyl-piperidinium formate], the hepatocyte half-life (rat hepatocytes) is reported as “∞ (rat); ∞ (human)”, the remaining at 2 h (plasma stability (rat)) is reported as 100% and the solubility thermodynamic (thermodynamic solubility) is reported as > 1600 µM. For the same compound, the neutrophil response (unsensitized BN rats; BAL performed 24 h after HDM extract challenge, dosed 2 h prior) was “clear inhibition”, the “inhibition of BAL monocytes/macrophages (significance)” value (unsensitized BN rats; dosing 120 min prior to challenge, 46 μg/kg i.t., BAL 48 h) was “significant” and the “performance in vivo (maximum inhibition of the eosinophil response, Figure 5A)” value (unsensitized BN rats) was “performed well”. The “effects on BAL neutrophils” value (unsensitized BN rats; intervening pretreatment intervals, BAL 48 h) was “insignificant”, the “effect on BAL neutrophils (significance)” value (unsensitized BN rats; pretreatment 60 min, 46 μg/kg i.t., BAL 48 h) was “significant” and the “effect on BAL neutrophils (significance)” value (unsensitized BN rats; pretreatment 360 min, 46 μg/kg i.t., BAL 48 h) was “significant”. The “effects on BAL neutrophils” value (unsensitized BN rats; short or long pretreatment intervals, BAL 48 h) was “inhibitory”, the “effect on BAL monocytes/macrophages” value (unsensitized BN rats; shorter pretreatment times, BAL 48 h) was “modest inhibition” and the “effect on eosinophils with 6–8 h separation of dose and challenge” value (unsensitized BN rats; [6]) was “substantial inhibition”. For the same compound, the “time of administration before challenge giving peak effects on eosinophils” value (unsensitized BN rats; [6]) was 2 h, the remaining at 2 h (plasma stability (human)) was 100% and the half-life (Pharmacokinetics in rats; male, Sprague-Dawley, rat, plasma, po, 5 mg/kg, half-life, fed) was 18 min. For the same compound, the volume of distribution (Pharmacokinetics in rats) was 0.3 L/kg, the clearance (Pharmacokinetics in rats; fasted) was 19 (fasted) mL/min/kg and the “changes in BAL cells after HDM challenge” value ([1]; HDM 10 (10 μg Der p 1) i.t. aerosol) was “attenuated”. The “BAL eosinophils after HDM challenge” value ([1]; HDM 10) was “eosinophil suppression”, the “BAL monocytes/macrophages after HDM challenge” value ([1]; HDM 10) was “No effects” and the “BAL neutrophil responses after HDM challenge” value ([1]; HDM 10) was “not significant”. The fraction unbound at 4 h, 5 µM [2] was 0.37, the plasma protein binding [3] was 61% and the hepatocyte half-life (human hepatocytes) was “∞ (rat); ∞ (human)”. The cell stability [4] was 100;100 and the cell stability [5] was 100;100.

With `CC(C)[C@H](NC(=O)[C@H](C)NC(=O)[C@@H](NC(=O)c1ccnc2ccccc12)C(C)(C)C)C(=O)C(=O)NCC(=O)N1CCN(C(C)C)CC1` [Compound 10, quinoline-4-carboxylic acid [(S)-1-((S)-1-{(S)-1-[2-(4-isopropyl-piperazin-1-yl)-2-oxo-ethylaminooxalyl]-2-methyl-propylcarbamoyl}-ethylcarbamoyl)-2,2-dimethyl-propyl]-amide] the “BAL neutrophil response: significance of effect (P<0.05)” value (unsensitized BN rats; [7]) was “not significant”, the “performance in vivo (maximum inhibition of the eosinophil response, Figure 5A)” value (unsensitized BN rats) was “performed less satisfactorily” and the “Reduction in BAL eosinophil response: significance of inhibition (P<0.05)” value (unsensitized BN rats; time points other than the stated exceptions, 50:1 molar equivalents i.t. aerosol) was “significant”. The “potency against the target molecule in vitro” value (Der p 1) was “potent”.

With `CC(C)[C@H](NC(=O)[C@H](C)NC(=O)[C@H](Cc1ccccc1)NC(=O)c1ccncc1)C(=O)C(=O)NCc1ccccc1` [Compound 11, N-((S)-1-(((S)-1-(((S)-1-(benzylamino)-4-methyl-1,2-dioxopentan-3-yl)amino)-1-oxopropan-2-yl)amino)-1-oxo-3-phenylpropan-2-yl)isonicotinamide] the “BAL neutrophil response: significance of effect (P<0.05)” value (unsensitized BN rats; [7]) was “not significant”, the “Reduction in BAL eosinophil response: significance of inhibition (P<0.05)” value (unsensitized BN rats; all time points, naive BN rats, HDM extract 10 µg Der p 1, single i.t. aerosol dose 50:1 molar equivalents to Der p 1) was “significant” and the “performance in vivo (maximum inhibition of the eosinophil response, Figure 5A)” value (unsensitized BN rats) was “effective”. The “potency against the target molecule in vitro” value (Der p 1) was “less potent than others”.
